Test results taken from patent publication US20050085432A1, “Methods of using conjugates of saccharides and acetamidino or guanidino compounds for treating bacterial infections” (priority 2001, published 2005).

How the values were obtained:
human RNase P = experiment: Activity of partially purified human RNase P (ptRNA processing); format: biochemical; conditions: FIG. 5; for inhibition of human RNase P: 7.5 μM; for effect on human RNase P activity: concentrations 10-fold greater than the IC50 values for E. coli RNase P
Method: In order to determine if the AAC inhibitors of the present invention cross-react with human RNase P, the activity of a partially purified human enzyme was tested in the absence or presence of various concentrations of NeoR and […].

[1] = test system: RNase P derived from S. pneumoniae; experiment: RNase P activity assay (ptRNA processing), reconstituted S. pneumoniae RNase P; format: biochemical, Streptococcus pneumoniae; conditions: FIG. 3
Method: (§1) Polynucleotide sequences of Neisseria gonnorhoeae, Porphyromonas gingivalis and Streptococcus pneumoniae (SEQ ID NOS: 1, 3 and 5, respectively) expressing amino acid (SEQ ID NOS: 2, 4 and 6, respectively) subunits of RNase P were PCR amplified using standard PCR methodology. The genes encoding the RNA subunit of RNase P were cloned into pUC19 under the transcriptional control of a T7 RNA polymerase promoter. T7 RNA polymerase-mediated run-off in vitro transcription was performed on individual clones to generate the respective RNase P RNAs, which were then purified using Quick Spin columns. cDNAs encoding the protein subunits of the various bacterial species were subcloned into either expression vectors: pCRT7TOPO or pBAD (Invitrogen, Carlsbad, Calif.). Proteins were over-expressed in E. coli as His6-tagged fusion proteins and purified to homogeneity using a combination of cation exchange and immobilized metal affinity chromatography.
(§2) RNase P activity was determined in the presence or absence of AAC inhibitors suspended in 50 mM Tris-Hcl (7.2), 5 % (w/v) polyethylene glycol 8000, 1 mM NH4Cl, 10 mM spermidine, 10 mM MgCl2. Reactions were carried under multiple-tumover conditions (for example, 100 nM of radio-labeled ptRNA^Tyrsu3+ and 0.5 nM E. coli RNase P holoenzyme). […]
(§3) Extent of substrate cleavage was quantified using a PhosphorImager (Molecular Dynamics) and ImageQuant softwares.

[2] = test system: RNase P derived from P. gingivalis; experiment: RNase P activity assay (ptRNA processing), reconstituted P. gingivalis RNase P; format: biochemical, Porphyromonas gingivalis; conditions: FIG. 3
Method: as §1, §2, §3

[3] = test system: RNase P derived from N. gonnorhoeae; experiment: RNase P activity assay (ptRNA processing), reconstituted N. gonnorhoeae RNase P; format: biochemical, Neisseria gonnorhoeae; conditions: FIG. 3
Method: as §1, §2, §3

E. coli RNase P = experiment: RNase P activity assay (ptRNA processing), in-vitro reconstituted E. coli RNase P; format: biochemical; conditions: for inhibition of RNase P processing activity: radiolabeled ptRNA Tyr su3+ substrate, FIG. 3; for effect of poly A RNA on ability to inhibit E. coli RNase P: as much as 1 μM poly A RNA added; for IC50: initial reaction velocities at increasing inhibitor concentrations, FIG. 4a-b, read-out: IC50, inhibition of E. coli RNase P activity
Method: RNase P from E. coli was prepared and purified according to Vioque, A. et al. (1988) J. Mol. Biol. 202:835-848 and Gopalan, V. (1997) J. Mol. Biol. 267:818-829.
ptRNA^Tyrsu3+ was prepared by in vitro transcription of FokI-digested pUC19TyrT [Vioque, A. et al. (1988) J. Mol. Biol. 202:835-848].
RNase P activity was determined in the presence or absence of AAC inhibitors suspended in 50 mM Tris-Hcl (7.2), 5 % (w/v) polyethylene glycol 8000, 1 mM NH4Cl, 10 mM spermidine, 10 mM MgCl2. Reactions were carried under multiple-tumover conditions (for example, 100 nM of radio-labeled ptRNA^Tyrsu3+ and 0.5 nM E. coli RNase P holoenzyme).
Following holoenzyme assembly, AAC inhibitors were added to the reaction mixture and incubated for 5 minutes prior to the addition of [^32P]-ptRNA^Tyrsu3+ substrate. Reactions were allowed to proceed for the indicated times and were terminated by adding a quenching dye [7 M Urea, 10 mM EDTA, 10% (v/v) phenol]. Reaction products were resolved by gel electrophoresis (8% polyacrylamide/7 M Urea) and auto-radiograms were obtained.
as §3

[4] = two single doses of 25 mg/kg body weight for the duration of two hours; cited from earlier work
[5] = biological target: various bacterial RNase P; experiment: RNase P activity assay, various bacterial RNase P; format: biochemical; conditions: concentration range
Method: as §1, §2, §3

[6] = test system: RNP complex formed between HIV TAR RNA and Tat-derived peptide; conditions: 10-fold excess of tRNA; cited from earlier work

RNase P derived from P. gingivalis, sequence (as listed by the source): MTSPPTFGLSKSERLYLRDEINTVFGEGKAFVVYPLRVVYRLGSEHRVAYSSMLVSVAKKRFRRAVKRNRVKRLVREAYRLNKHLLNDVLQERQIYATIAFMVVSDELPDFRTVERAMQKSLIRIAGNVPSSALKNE

Row | Compound | inhibition of human RNase P (human RNase P) | effect on human RNase P activity (human RNase P) | inhibition of RNase P processing activity ([1]; 500 nM NeoR) | susceptibility of RNase P activity to the inhibitor ([2]; 500 nM NeoR) | inhibition of RNase P processing activity ([3]; 500 nM NeoR) | inhibition of RNase P processing activity (E. coli RNase P; 500 nM NeoR) | effect of poly A RNA on ability to inhibit E. coli RNase P (E. coli RNase P; FIG. 6) | IC50 (E. coli RNase P) | IC50 fold lower than that of the parental aminoglycoside (E. coli RNase P; versus literature value of parental aminoglycoside (Mikkelsen 1999)) | toxicity to mice [4] | IC50 for inhibition of various bacterial RNase P [5] | inhibition of RNase P processing activity ([1]; 1500 nM R3G) | susceptibility of RNase P activity to the inhibitor ([2]; 1500 nM R3G) | inhibition of RNase P processing activity ([3]; 1500 nM R3G) | inhibition of RNase P processing activity (E. coli RNase P; 1500 nM R3G) | effect of tRNA on ability to disrupt the TAR RNA/Tat-derived peptide complex [6] | inhibition of RNase P specific activity (E. coli RNase P; 10-fold excess concentration over the ptRNA substrate, FIG. 6)
1 | hexa-argininamido-neomycin B [NeoR] | nearly complete inhibition | largely unaffected | nearly complete inhibition | less susceptible | nearly complete inhibition | nearly complete inhibition | failed to alter | 125 nM | 100 fold | not toxic | sub-micromolar |  |  |  |  |  | 
2 | triargininamido-gentamycin C [R3G] | nearly complete inhibition | largely unaffected |  |  |  |  | failed to alter | 300 nM |  |  | sub-micromolar | nearly complete inhibition | less susceptible | nearly complete inhibition | nearly complete inhibition | no effect | 
3 | N=C(N)NCCC[C@H](N)C(=O)O [L-Arginine, reference compound] |  |  |  |  |  |  |  |  |  |  |  |  |  |  |  |  | did not inhibit
